System: influenza A and B viruses
Assay: Inhibitory activity against virus (general statement)
Type: cell-based
Details: statement in words

SMILES: C[C@H]1CC[C@H]2C(C)(C)[C@@H](O)CC[C@]23Oc2c(c(O)cc4c2CNC4=O)C[C@]13C [SQ-02-S5, (6a R, 7S, 9a S, 11 S, 13a S)-2,3,6,6a,7,8,9,9a,10,11,12,13-dodecahydro-5, 11-dihydroxy-6a, 7,10,10-tetramethyl-3-oxo-1H-benzo[8,8a][1]benzopyrano[2,3-e]isoindole]
- inhibitory activity against virus: strong inhibitory activity against virus
